Experimental data taken from patent US20110190235A1, “BORON-CONTAINING SMALL MOLECULES AS ANTIPROTOZOAL AGENTS” (Anacor Pharmaceuticals, Inc., priority 2009, published 2011).
pIC50: −log10 of the molar value. ≈ marks a conversion by molar mass, not a printed value. Read-outs that look alike come from different tables or passages of the source.

How the values were obtained:
[1] = Pharmacokinetic studies in mice (plasma, brain); type: in vivo; conditions: male, CD-1, mouse, 8 mg/kg, oral; for CL/F / half-life: mice (Table 3a); for CL/F: read-out: Oral Clearance Cl/F (converted); for half-life: read-out: t½ (converted); for Cmax / AUC(0-inf) / AUC(0-t): mice, normalized to 25 mg/kg (Table 3a); for AUC(0-inf): read-out: Exposure/trapezoid AUC0-inf; for AUC(0-t): read-out: Exposure/trapezoid AUC0-last
Description: Male CD-1 mice weighing approximately 25 g received the test article (E19 or 82 or E14 or 69) by either intravenous (IV), oral gavage (OG) or intra-peritoneal (IP) routes. Animals in IV group (6-10 animals, 1-2 per time point) received a single bolus injection of approximately 2 mg/kg of the test article. Animals receiving […], or as 4 repeat doses ([…], 1-2 per time point).
All doses were administered as clear colorless solutions in either: 50% (v/v) PEG400:20% (v/v) ethanol:30% (v/v) carboxymethylcellulose (0.5% w/v in sterile water for injection, WFI), or as in situ sodium salts in 5% (m/v) dextrose:2% (v/v) ethanol in DWI. All dose solutions were delivered at 4 mL/kg. Animals were fasted for at least 4 hours before dosing, and for 2 hours after dosing.
Blood samples and brain tissue were sampled from 1 or 2 animals/timepoint/group immediately before dosing and approximately 0.17, 0.5, 1, 2, 3, 4, 6, 8, 12, 18 and 24 hr after dosing for full pharmacokinetic and tissue analysis, or at 0.5, 2 and 4 hours post dosing to assess early-phase CNS disposition.
Bioanalysis for test article in whole blood, plasma or brain tissue was performed by HPLC with tandem mass spectrometry (LC-MSMS). Whole blood and plasma samples were treated with 3 volumes of either acetonitrile or methanol to precipitate plasma proteins. Treated samples were centrifuged and supernatants removed for analysis. Brain tissues were weighed and homogenized mechanically in the presence of 1 volume of phosphate-buffered saline (PBS). The resulting tissue suspensions were then diluted with a further volume of PBS, and then treated in the same manner as whole blood or plasma.
Extracted samples were assayed for test article by means of LC-MSMS employing reversed-phase chromatography coupled to a triple quadrupole mass spectrometer employing electrospray ionization in the positive ion mode. The analytical column was a Phenomenex Luna 3μ C8 50×2 mm, with an online sample purification step performed on a Phenomenex Synergi 4μ Polar RP 50×2 mm column.
Test articles were eluted using a binary mobile phase gradient comprising 5 mM Ammonium Acetate: 0.1% formic acid in either MeOH or H2O.
Non-compartmental analysis of plasma test article concentration versus time was performed in Microsoft Excel to generate pharmacokinetic parameters including: area under the curve (AUC), clearance (as Cl or Cl/F), volume of distribution (Vdss), half-life (t½), and bioavailability (F).

[2] = L929 cytotoxicity evaluation (resazurin); type: cell-based; conditions: mouse, L929 mouse fibroblast cells; 72 hrs incubation; read-out: Cytotox L-929 IC50
How it was run: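 Mouse L929 fibroblasts (1×10^4/mL seeding, attached overnight) were treated 72 h at 37 °C, 5% CO2 with serially diluted compounds in DMSO in D-MEM/10% FBS. Viability read by resazurin fluorescence after 3–4 h (ex 544/em 590 nm); IC50 from sigmoidal fits of single data points.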

[3] = test system: bloodstream-form trypanosome T. brucei brucei 427 strain; test: Trypanosoma brucei brucei high-throughput in vitro drug sensitivity assay (resazurin); type: cell-based; conditions: Trypanosoma brucei, 72 hrs incubation; for IC50: read-out: T.b. brucei IC50

SMILES	IC50 at 72 h [2] [µg/mL]	IC50 [3] [µg/mL]	also measured
O=C(Nc1ccc2c(c1)B(O)OC2)c1ccc(F)cc1Cl [E14, 2-Chloro-4-fluoro-N-(1-hydroxy-1,3-dihydro-benzo[c][1,2]oxaborol-6-yl)-benzamide]	–	–	CL/F ([1]; brain): 134 mL/min/kg; half-life ([1]; brain): 1.6 h; Cmax ([1]; brain): 2440 ng/mL; AUC(0-inf) ([1]; brain): 3150 ng·h/mL; AUC(0-t) ([1]; brain): 3120 ng·h/mL; CL/F ([1]; plasma): 28.8 mL/min/kg; half-life ([1]; plasma): 2.97 h; Cmax ([1]; plasma): 3590 ng/mL; AUC(0-inf) ([1]; plasma): 15200 ng·h/mL; AUC(0-t) ([1]; plasma): 14400 ng·h/mL
C=C(C)c1ccc(C(=O)Nc2ccc3c(c2)B(O)OC3(C)C)c(Cl)c1 [compound 100, 2-Chloro-N-(1-hydroxy-3,3-dimethyl-1,3-dihydro-benzo[c][1,2]oxaborol-6-yl)-4-isopropenyl-benzamide]	9.55 (≈ 26.9 µM)	0.077	–
Cc1ccc(C(=O)Nc2ccc3c(c2)B(O)OC3(C)C)c(Cl)n1 [compound 118]	> 10	0.814	–
CC1(C)OB(O)c2cc(NC(=O)c3ccc([N+](=O)[O-])cc3Cl)ccc21 [compound 93]	> 10	0.197	–
CC(=O)Nc1ccc2c(c1)B(O)OC2C1CCCC1 (stereo not shown) [compound 21, N-(3-Cyclopentyl-1-hydroxy-1,3-dihydro-benzo[c][1,2]oxaborol-6-yl)-acetamide]	> 10	> 5	pIC50 ([3]; read-out: T. b. brucei IC50): < 4.71
CC1(C)OB(O)c2cc(NC(=O)c3ccc(-c4cccs4)cc3)ccc21 [compound 60, N-(1-Hydroxy-3,3-dimethyl-1,3-dihydro-benzo[c][1,2]oxaborol-6-yl)-4-thiophen-2-yl-benzamide]	> 10	0.205	–
CC1(C)OB(O)c2cc(NC(=O)c3c(F)cccc3Cl)ccc21 [compound 73, 2-Chloro-6-fluoro-N-(1-hydroxy-3,3-dimethyl-1,3-dihydro-benzo[c][1,2]oxaborol-6-yl)-benzamide]	> 10	2.44	–
CC1(C)OB(O)c2cc(NC(=O)c3ccoc3)ccc21 [compound 120, Furan-3-carboxylic acid (1-hydroxy-3,3-dimethyl-1,3-dihydro-benzo[c][1,2]oxaborol-6-yl)-amide]	> 10	> 5	–
CC1(C)OB(O)c2cc(NC(=O)c3c(Cl)cc(Cl)cc3Cl)ccc21 [compound 105, 2,4,6-Trichloro-N-(1-hydroxy-3,3-dimethyl-1,3-dihydro-benzo[c][1,2]oxaborol-6-yl)-benzamide]	> 10	0.788	–
CC1(C)OB(O)c2cc(NC(=O)c3cccc4ccccc34)ccc21 [compound 111, Naphthalene-1-carboxylic acid (1-hydroxy-3,3-dimethyl-1,3-dihydro-benzo[c][1,2]oxaborol-6-yl)-amide]	> 10	1.23	–
CC1(C)OB(O)c2cc(NC(=O)c3cccc(F)c3)ccc21 [compound 41, 3-Fluoro-N-(1-hydroxy-3,3-dimethyl-1,3-dihydro-benzo[c][1,2]oxaborol-6-yl)-benzamide]	> 10	> 5	–
COc1cc(C(=O)Nc2ccc3c(c2)B(O)OC3(C)C)cc(OC)c1OC [compound 106, N-(1-Hydroxy-3,3-dimethyl-1,3-dihydro-benzo[c][1,2]oxaborol-6-yl)-3,4,5-trimethoxy-benzamide]	> 10	> 5	–
CCC(C)(C)C(=O)Nc1ccc2c(c1)B(O)OC2(C)C [compound 132, N-(1-Hydroxy-3,3-dimethyl-1,3-dihydro-benzo[c][1,2]oxaborol-6-yl)-2,2-dimethyl-butyramide]	> 10	3.81	–
CC1(C)OB(O)c2cc(NC(=O)c3ccc(I)cc3Cl)ccc21 [compound 77, 2-Chloro-N-(1-hydroxy-3,3-dimethyl-1,3-dihydro-benzo[c][1,2]oxaborol-6-yl)-4-iodo-benzamide]	> 10	0.05	–
CC1(C)OB(O)c2cc(NC(=O)c3ccc(OC(F)(F)F)cc3)ccc21 [compound 53, N-(1-Hydroxy-3,3-dimethyl-1,3-dihydro-benzo[c][1,2]oxaborol-6-yl)-4-trifluoromethoxy-benzamide]	> 10	0.407	–
Cc1cc(Br)ccc1C(=O)Nc1ccc2c(c1)B(O)OC2(C)C [compound 91]	> 10	0.786	–
CC1(C)OB(O)c2cc(NC(=O)c3ccc(-c4ccccc4)cc3)ccc21 [compound 62, Biphenyl-4-carboxylic acid (1-hydroxy-3,3-dimethyl-1,3-dihydro-benzo[c][1,2]oxaborol-6-yl)-amide]	> 10	0.365	–
